pIC50: −log10 of the molar value.
Legend:
MMP13 = MMP13 (Homo sapiens, UniProt P45452); assay: FRET substrate cleavage by recombinant MMP, inhibition by activity-based probe; type: biochemical; settings: FRET substrate PEPDAB008 10 μM, read-out: IC50, inhibition of substrate cleavage of active MMP
Description: (§1) The binding of an activity-based probe, e.g., HxBP-Bt, to the active site of an MMP (as shown in FIG. 1A) would effectively reduce (or inhibit) the ability of such MMP to cleave its substrate. […] This correlation should also provide an IC50 value to measure the sensitivity/potency of the MAMBI system to bind, and thereby quantify, active MMPs. […] Fluorescence resonance energy transfer (FRET) technique is used to determine if a substrate is cleaved by pre-labeling two parts of a substrate molecule with a donor chromophore and an acceptor chromophore, respectively, and measuring the energy transfer efficiency from the donor to the acceptor chromophore to determine if two fluorophores are within a certain distance of each other, i.e. the substrate is intact and uncleaved. Here, HxBP-Bt bound MMP samples were mixed with chromophore-labeled substrate peptides in 384-well OptiPlates® at 37° C. using timelapse fluorimetry in the Spectromax® M3 and M2e fluorimeters (Molecular Devices). The fluorescence was monitored by plate reader. In general, readings measured fluorescence every 20 minutes for roughly five hours and the reported rate of increase in fluorescence was calculated from fitting a linear portion of this increase including at least 4 data points and subtracting the average increase in background, protease-free conditions. […] Reaction velocities were calculated from linear reaction periods from raw fluorescence value time courses. […] Relative rates of FRET substrate cleavage among samples with the addition of HxBP-Bt were quantified and compared with the rates without HxBP-Bt. Activities of recombinant MMPs 1, 7, 8, 12 and 13, in the presence or absence of HxBP-Bt probe, were characterized with […]008 (Dabcyl-[…]); MMPs 2 and 9 with […]011 (Dabcyl-[…]) and MMPs 3 and 10 with […]052 (Dabcyl-[…]). […] These IC50 values were used to estimate binding off-rates in the computational model. IC50 of the inhibitor was calculated by fitting the resulting dose-dependent data with the PRISM software (GraphPad, USA)

MMP8 = MMP8 (Homo sapiens, UniProt P22894); assay: as above; type: biochemical; settings: FRET substrate PEPDAB008 10 μM, read-out: IC50, inhibition of substrate cleavage of active MMP
MMP8, sequence (P22894 101-467, species assumed): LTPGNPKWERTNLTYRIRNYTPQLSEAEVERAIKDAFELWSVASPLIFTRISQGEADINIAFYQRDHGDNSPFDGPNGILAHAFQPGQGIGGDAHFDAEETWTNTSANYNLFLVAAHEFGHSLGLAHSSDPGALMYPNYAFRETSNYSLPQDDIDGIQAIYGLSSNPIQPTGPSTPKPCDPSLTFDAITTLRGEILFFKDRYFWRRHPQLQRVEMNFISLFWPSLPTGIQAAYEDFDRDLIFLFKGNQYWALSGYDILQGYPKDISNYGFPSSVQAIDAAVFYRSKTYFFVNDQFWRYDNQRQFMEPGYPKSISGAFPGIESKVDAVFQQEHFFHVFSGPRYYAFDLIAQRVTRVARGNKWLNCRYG
Description: as §1

MMP9 = MMP9 (Homo sapiens, UniProt P14780); assay: as above; type: biochemical; parameters: The recombinant catalytic domains of human MMPs 7 and 9 were purchased from Enzo Life Sciences, and of MMP 12 from Anaspec; purchased Enzo Life Sciences; settings: FRET substrate PEPDAB011 10 μM, read-out: IC50, inhibition of substrate cleavage of active MMP
MMP9, sequence (P14780 107-449 limits assumed): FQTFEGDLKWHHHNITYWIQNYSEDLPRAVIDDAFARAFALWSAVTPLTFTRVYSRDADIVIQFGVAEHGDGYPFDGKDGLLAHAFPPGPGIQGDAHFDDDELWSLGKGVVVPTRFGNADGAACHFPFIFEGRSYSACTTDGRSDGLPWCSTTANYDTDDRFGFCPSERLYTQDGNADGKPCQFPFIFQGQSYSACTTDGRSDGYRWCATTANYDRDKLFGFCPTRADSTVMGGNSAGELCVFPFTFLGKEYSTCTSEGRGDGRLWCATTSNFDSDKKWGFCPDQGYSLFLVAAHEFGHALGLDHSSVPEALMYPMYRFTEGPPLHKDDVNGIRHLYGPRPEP
Description: (§2) The binding of an activity-based probe, e.g., HxBP-Bt, to the active site of an MMP (as shown in FIG. 1A) would effectively reduce (or inhibit) the ability of such MMP to cleave its substrate. […] This correlation should also provide an IC50 value to measure the sensitivity/potency of the MAMBI system to bind, and thereby quantify, active MMPs. […] Fluorescence resonance energy transfer (FRET) technique is used to determine if a substrate is cleaved by pre-labeling two parts of a substrate molecule with a donor chromophore and an acceptor chromophore, respectively, and measuring the energy transfer efficiency from the donor to the acceptor chromophore to determine if two fluorophores are within a certain distance of each other, i.e. the substrate is intact and uncleaved. […] The fluorescence was monitored by plate reader. In general, readings measured fluorescence every 20 minutes for roughly five hours and the reported rate of increase in fluorescence was calculated from fitting a linear portion of this increase including at least 4 data points and subtracting the average increase in background, protease-free conditions. […] Reaction velocities were calculated from linear reaction periods from raw fluorescence value time courses. […] Relative rates of FRET substrate cleavage among samples with the addition of HxBP-Bt were quantified and compared with the rates without HxBP-Bt. […]

MMP7 = biological target: T1, MMP7 (Homo sapiens, UniProt P09237); assay: as above; type: biochemical; parameters: The recombinant catalytic domains of human MMPs 7 and 9 were purchased from Enzo Life Sciences, and of MMP 12 from Anaspec; purchased Enzo Life Sciences; settings: FRET substrate PEPDAB008 10 μM, read-out: IC50, inhibition of substrate cleavage of active MMP
T1 sequence (P09237 95-267): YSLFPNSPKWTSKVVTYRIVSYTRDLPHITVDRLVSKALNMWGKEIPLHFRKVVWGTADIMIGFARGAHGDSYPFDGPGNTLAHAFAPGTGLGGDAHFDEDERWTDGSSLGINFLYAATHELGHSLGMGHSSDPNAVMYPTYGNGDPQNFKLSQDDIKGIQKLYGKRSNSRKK
Description: as §2

[1] = tested on: aggregate metalloprotease activity of conditioned medium; assay: FRET substrate cleavage in conditioned media of cell cultures; type: biochemical, human
Description: Eight conditioned mediums were assayed, each tested in two complete biological replicates (n=2), from these cell cultures: four endometrial related cell populations including (1) primary endometrial stromal cells (pESC), (2) telomerase-immortalized human endometrial stromal cells (tHESC) (Krikun et al., Endocrinology, 145(5):2291-6 (2004)), (3) an adenocarcinoma endometrial epithelial cell line, Ishikawa, and (4) an epithelial line derived from an endometriosis lesion, 12z; three canonical cancer cell lines including (5) A549, (6) […], and (7) HT1080; as well as (8) human telomerase reverse transcriptase (hTERT) immortalized mesenchymal stem cell line (MSC).
Conditioned supernatant was prepared: collected at 12 h, spun down at 200 g for 5 min to remove debris, and immediately flash-frozen. For FRET-substrate assays involving this supernatant, final reactions were composed of a 2:1:1 mixture of […] substrate diluted from 5 mMDMSO stock into phosphate buffered saline, 4 nM active MMP7 diluted in ‘MMP buffer’, and thawed supernatant.
Validation of HxBP-Bt probe binding to the active sites of proteases in conditioned media was performed based on the FRET-based study as described in Example 1, without the addition of MMP capture beads. […]

MMP12 = MMP12 (Homo sapiens, UniProt P39900); assay: FRET substrate cleavage by recombinant MMP, inhibition by activity-based probe; type: biochemical; parameters: The recombinant catalytic domains of human MMPs 7 and 9 were purchased from Enzo Life Sciences, and of MMP 12 from Anaspec; purchased Anaspec; settings: FRET substrate PEPDAB008 10 μM, read-out: IC50, inhibition of substrate cleavage of active MMP
MMP12, sequence (P39900 106-263 limits assumed): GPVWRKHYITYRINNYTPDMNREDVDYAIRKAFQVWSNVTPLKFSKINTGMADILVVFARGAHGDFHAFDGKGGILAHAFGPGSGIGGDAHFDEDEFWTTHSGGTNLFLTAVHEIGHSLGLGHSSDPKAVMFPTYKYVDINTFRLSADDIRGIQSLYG
Description: as §2

[2] = tested on: proteases in peritoneal fluid of control donors and endometriosis patients; assay: FRET substrate cleavage in clarified peritoneal fluid; type: biochemical, human; settings: peritoneal fluids of six control donors and six endometriosis patients; 500 nM or 1500 nM HxBP-Bt
Description: Clarified peritoneal fluid from patients with endometriosis was compared to that from a control population with regards to the active MMP compositions and quantities. Peritoneal fluid is a mixture of cell debris, leukocytes, and thousands of soluble proteins including over 100 proteases and protease inhibitors that is contained within the pelvic cavity and interacts with endometriotic lesions (Amon, et al, PLoS ONE, 5(6) (2010)).
All laparoscopy patients provided informed consent in accordance with a protocol approved by the Partners Human Research Committee and the Massachusetts Institute of Technology Committee on the Use of Humans as Experimental Subjects. Enrollment was limited to pre-menopausal women with regular cycles (26-32 days) and excluded individuals who had received hormonal treatment within three months of surgery. Moderate/Severe (Stage III/IV) endometriosis was diagnosed according to the revised criteria of the American Society for Reproductive Medicine 8. Peritoneal fluid was aspirated from the rectouterine pouch immediately following trocar insertion and prior to peritoneal lavage or surgical manipulation. Upon collection, specimens were immediately placed on wet ice and clarified within 15 min. by centrifugation for 10 min. at 1000 rcf. Clarified aspirates were transported to the laboratory on ice, aliquoted, and stored at −80° C. until analysis.

CC(C)CC(C(=O)NC(Cc1ccc(C(=O)c2ccccc2)cc1)C(=O)NCCOCCOCCOCC(=O)NCC(C)(C)SSC(C)(C)CNC(=O)CCCCC1SCC2NC(=O)NC21)C(O)C(=O)NO (centres unmarked) [HxBP-Bt, biotin-tagged hydroxamate benzophenone (HxBP-Bt) probe]
pIC50 (MMP13): 8.64 | pIC50 (MMP8): 8.62 | pIC50 (MMP9): 8.57 | pIC50 (MMP7): 8.04 | effect on substrate cleavage (bulk protease activity) ([1]; eight conditioned media normalized to 1000 μg/mL, 500 nM HxBP-Bt): greatly deceased the substrate cleavage ability | effect on substrate cleavage (bulk protease activity) ([1]; eight conditioned media, 1500 nM HxBP-Bt, in some cases): further decreased the protease activities | pIC50 (MMP12): 8.40 | effect on substrate cleavage [2]: inhibited substrate cleavage in all samples

— US11408885B2, “Compositions and multiplex assays for characterizing active proteases and their inhibitors” (Massachusetts Institute of Technology, priority 2017, dated 2022)
